Experimental data as given in patent US10844045B2, “Pharmaceutical salts N-(2-(2-(dimethylamino)ethoxy)-4-methoxy-5-((4-(1-methyl-1H-indol-3-yl)pyrimidin-2-yl)amino)phenyl)acrylamide and crystalline forms thereof” (Beta Pharma, Inc., priority 2016, dated 2020).
Counter-ions that a name gives are not always drawn. Like-named read-outs stand apart in the source and are kept apart here.

Assays:
[1] = Dynamic vapor sorption (DVS); assay type: physicochemical; details: for hygroscopicity classification according to DVS results / weight gain (DVS): from 0 to 80% RH
[2] = system: kinase domain of the T790M double mutant; details: cited from earlier work
[3] = Solubility of salt forms; assay type: physicochemical; details: for Final pH: final pH of the solubility test

SMILES	DVS Sorption [1] [%]	inhibition of the kinase domain of the T790M double mutant [2]	Solubility [3] [µg/mL]	Final pH [3]	hygroscopicity classification according to DVS results [1]	weight gain (DVS) [1] [%]	DVS Sorption ([1]; listed as 2 (Form 2A)) [%]	Solubility ([3]; read-out: Solubility) [µg/mL]
C=CC(=O)Nc1cc(Nc2nccc(-c3cn(C)c4ccccc34)n2)c(OC)cc1OCCN(C)C [3 (Form 2B), N-(2-(2-(Dimethylamino)ethoxy)-4-methoxy-5-((4-(1-methyl-1H-indol-3-yl)pyrimidin-2-yl)amino)phenyl)acrylamide methanesulfonate (1:1)]	14.44							
C=CC(=O)Nc1cc(Nc2nccc(-c3cn(C)c4ccccc34)n2)c(OC)cc1OCCN(C)C [Compound 1, N-(2-(2-(Dimethylamino)ethoxy)-4-methoxy-5-((4-(1-methyl-1H-indol-3-yl)pyrimidin-2-yl)amino)phenyl)acrylamide]		effectively inhibits	50	6.2				
C=CC(=O)Nc1cc(Nc2nccc(-c3cn(C)c4ccccc34)n2)c(OC)cc1OCCN(C)C [Compound 2, N-(2-(2-(Dimethylamino)ethoxy)-4-methoxy-5-((4-(1-methyl-1H-indol-3-yl)pyrimidin-2-yl)amino)phenyl)acrylamide methanesulfonate (1:1)]			>53000	4.9	hygroscopic	14.44	0.91	
C=CC(=O)Nc1cc(Nc2nccc(-c3cn(C)c4ccccc34)n2)c(OC)cc1OCCN(C)C.Cl [Compound 3, N-(2-(2-(Dimethylamino)ethoxy)-4-methoxy-5-((4-(1-methyl-1H-indol-3-yl)pyrimidin-2-yl)amino)phenyl)acrylamide hydrochloride (1:1)]	0.76			6.0	slightly hygroscopic	0.76		810
C=CC(=O)Nc1cc(Nc2nccc(-c3cn(C)c4ccccc34)n2)c(OC)cc1OCCN(C)C [Compound 4, N-(2-(2-(Dimethylamino)ethoxy)-4-methoxy-5-((4-(1-methyl-1H-indol-3-yl)pyrimidin-2-yl)amino)phenyl)acrylamide sulfate (1:1)]	10.60		>79000	2.4	hygroscopic	10.60		
C=CC(=O)Nc1cc(Nc2nccc(-c3cn(C)c4ccccc34)n2)c(OC)cc1OCCN(C)C.Cc1ccc(S(=O)(=O)O)cc1 [Compound 5, N-(2-(2-(Dimethylamino)ethoxy)-4-methoxy-5-((4-(1-methyl-1H-indol-3-yl)pyrimidin-2-yl)amino)phenyl)acrylamide p-toluenesulfonate (1:1)]	1.86			5.8	slightly hygroscopic	1.86		530
C=CC(=O)Nc1cc(Nc2nccc(-c3cn(C)c4ccccc34)n2)c(OC)cc1OCCN(C)C [Compound 6, N-(2-(2-(Dimethylamino)ethoxy)-4-methoxy-5-((4-(1-methyl-1H-indol-3-yl)pyrimidin-2-yl)amino)phenyl)acrylamide citrate (1:1)]			6900	4.6				
